Experimental data taken from PMC5958064, “Single cell analysis of kynurenine and System L amino acid transport in T cells” (Nature Communications, 2018).
Each block holds one compound with its values, some of them ahead of it.

How the values were obtained:
AHR [1] = assay: Cyp1a1 mRNA induction in TH17cond CD4+ T cells (qPCR); assay type: cell-based, mouse
Description: To activate primary T cells, spleens and/or lymph nodes (LN) were removed, disaggregated and red blood cells lysed. Cells were stimulated with 1 μg/ml of the CD3 monoclonal antibody (2C11) and 2 μg/ml anti-CD28 (37.51; ebiosciences) to trigger the TCR. Naive CD4^+ T cells and 24 h TCR-activated CD4^+ T cells were purified using CD4 isolation kit (EasySep, STEMCELL Technologies). […] Proleukin, Novartis) for a further 3–5 days. To generate TH1s and TH17s, murine CD8^+ T cells were depleted from lymph node preparations using CD8 depletion kit (EasySep, STEMCELL Technologies). […] RnD Systems) and IL-2 (20 ng/ml) and for TH17s; cytokines IL-6 (50 ng/ml, Peprotech), IL-1β (10 ng/ml, Peprotech) and TGFβ (2 ng/ml, Peprotech). TH17s were cultured in IMDM (Gibco). All other cells were cultured in RPMI 1640 containing L-glutamine (Gibco). Culture media was supplemented with 10% FBS (Gibco), 50 μM β-mercaptoethanol (β-ME, Sigma) and penicillin/streptomycin (Gibco). Cells were incubated at 37 °C with 5% CO2 throughout. […] RNA was purified using the RNeasy RNA purification Mini Kit (Qiagen) (Genomic DNA was digested with RNase-free DNase (Qiagen) following manufacturer instructions) and reverse-transcribed using the iScript cDNA synthesis kit (BioRad). Quantitative PCR was performed in 96-well plate format using iQ SYBR Green-based detection (BioRad) on a BioRad iCycler.

[2] = target: T1, System L transporter SLC7A5 (Mus musculus, UniProt Q9Z127); assay: Flow cytometry kynurenine uptake assay (450 nm fluorescence) in T cells; assay type: cell-based; conditions: for IC50: 37 °C
T1 construct: endogenous in cells
Text: For cell surface staining, antibodies conjugated to FITC, PE, APC, Alexafluor 647 (A647), APC-efluor780 (APCe780), and PerCPCy5.5 were obtained from either BD Pharmingen, eBioscience or Biolegend. Fc receptors were blocked using Fc Block (BD Pharmingen). Antibody clones used were: CD4 (RM4-5), CD8a (53-6.7), TCRβ (H57-597), CD44 (IM7), CD45.1 (A20), CD45.2 (104) and CD98 (RC388). Cells were fixed using 1% paraformaldehyde. Standard intracellular cytokine staining protocols were followed for IFNγ (clone XMG1.2; Biolegend) staining. Data were acquired on a LSR Fortessa II with DIVA software or a FACSVerse flow cytometer with FACSuite software (BD Biosciences) and analysed using FlowJo software version 9.9.5 (TreeStar).
Start with at least 1 × 10^6 cells per condition, to obtain at least 200,000 events analysed by flow cytometry at the end of the protocol. […] If required, surface cell antibody staining should be performed prior to uptake assay protocol. This may be performed at room temperature or 4 °C, however test samples must be warmed to 37 °C, e.g. in water bath, prior to kynurenine uptake. (As with all multi-parameter flow cytometry, appropriate antibody staining controls must also be performed.) Samples can be fixed immediately after uptake assay by addition of 4% (vol/vol) paraformaldehyde (PFA; to a final concentration of 1%) for 30 min at room temperature.
For kynurenine uptake assay; pre-warm kynurenine (800 μM, in HBSS), BCH (40 mM, in HBSS) and lysine (20 mM, HBSS) and HBSS to 37 °C. After surface antibody staining of samples, resuspend cells in 200 μl warmed HBSS (1–5 × 10^6 cells in FACS tubes, or scale accordingly into plates). Keep cells in water bath at 37 °C. Add 100 μl of HBSS, or BCH or lysine to appropriate samples. Add 100 μl HBSS to no kynurenine controls (final volume 400 μl). Finally, add 100 μl kynurenine to appropriate samples. Stop uptake after 4 min by adding 125 μl 4% PFA for 30 min at room temperature, in the dark. The final concentrations for uptake assay are: 200 μM kynurenine; +/-10 mM BCH; +/-5 mM lysine. After fixation, wash cells twice in PBS/0.5% BSA and resuspend in PBS/0.5% BSA prior to acquisition on flow cytometer. The 405 nm laser and 450/50 BP filter are used for kynurenine fluorescence detection.
To monitor kynurenine uptake in live cells, acquire data on flow cytometer immediately following addition of kynurenine and plot fluorescence against time.

AHR [3] = system: AHR; parameters: method as in PMID 25657351, PMID 29279331; conditions: cited from earlier work
[4] = target: T1, System L transporter SLC7A5; assay: Radiolabelled 3H-kynurenine uptake in T cells; assay type: cell-based
Description: To activate primary T cells, spleens and/or lymph nodes (LN) were removed, disaggregated and red blood cells lysed. Cells were stimulated with 1 μg/ml of the CD3 monoclonal antibody (2C11) and 2 μg/ml anti-CD28 (37.51; ebiosciences) to trigger the TCR. Naive CD4^+ T cells and 24 h TCR-activated CD4^+ T cells were purified using CD4 isolation kit (EasySep, STEMCELL Technologies). […] Proleukin, Novartis) for a further 3-5 days. To generate TH1s and TH17s, murine CD8^+ T cells were depleted from lymph node preparations using CD8 depletion kit (EasySep, STEMCELL Technologies). […] RnD Systems) and IL-2 (20 ng/ml) and for TH17s; cytokines IL-6 (50 ng/ml, Peprotech), IL-1β (10 ng/ml, Peprotech) and TGFβ (2 ng/ml, Peprotech). TH17s were cultured in IMDM (Gibco). All other cells were cultured in RPMI 1640 containing L-glutamine (Gibco). Culture media was supplemented with 10% FBS (Gibco), 50 μM β-mercaptoethanol (β-ME, Sigma) and penicillin/streptomycin (Gibco). Cells were incubated at 37 °C with 5% CO2 throughout. […] Cells were pelleted below the oil, the aqueous supernatant solution, followed by the silicon oil/dibutyl phthalate mixture was aspirated, and the cell pellet underneath resuspended in 200 μl NaOH (0.5 M) and β-radioactivity measured by liquid scintillation counting in a Beckman LS 6500 Multi-Purpose Scintillation Counter (Beckman Coulter). […] Where indicated, the sodium free buffer was prepared using TMACl as described in Baird et al.[35] Data are expressed as molecules radiotracer per cell per minute. […] All other chemicals were obtained from Sigma.

[5] = summary over CTL, TH1 and 24 h TCR-stimulated T cells

T1 sequence (Q9Z127 whole entry): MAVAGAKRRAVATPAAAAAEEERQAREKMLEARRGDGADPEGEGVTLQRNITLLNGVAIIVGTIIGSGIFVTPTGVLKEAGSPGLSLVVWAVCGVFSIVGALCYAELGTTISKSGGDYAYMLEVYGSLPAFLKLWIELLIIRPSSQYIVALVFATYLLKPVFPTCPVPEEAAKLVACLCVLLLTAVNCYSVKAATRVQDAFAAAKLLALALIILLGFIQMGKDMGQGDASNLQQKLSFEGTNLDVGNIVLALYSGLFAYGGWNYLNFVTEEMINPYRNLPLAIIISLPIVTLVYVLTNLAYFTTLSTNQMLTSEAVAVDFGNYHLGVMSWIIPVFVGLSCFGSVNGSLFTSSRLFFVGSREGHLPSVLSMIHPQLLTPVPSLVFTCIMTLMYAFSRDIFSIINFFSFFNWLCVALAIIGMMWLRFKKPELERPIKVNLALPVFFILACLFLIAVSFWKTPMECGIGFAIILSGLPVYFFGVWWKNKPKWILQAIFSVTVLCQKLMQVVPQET
T1 sequence (P10852 whole entry partner): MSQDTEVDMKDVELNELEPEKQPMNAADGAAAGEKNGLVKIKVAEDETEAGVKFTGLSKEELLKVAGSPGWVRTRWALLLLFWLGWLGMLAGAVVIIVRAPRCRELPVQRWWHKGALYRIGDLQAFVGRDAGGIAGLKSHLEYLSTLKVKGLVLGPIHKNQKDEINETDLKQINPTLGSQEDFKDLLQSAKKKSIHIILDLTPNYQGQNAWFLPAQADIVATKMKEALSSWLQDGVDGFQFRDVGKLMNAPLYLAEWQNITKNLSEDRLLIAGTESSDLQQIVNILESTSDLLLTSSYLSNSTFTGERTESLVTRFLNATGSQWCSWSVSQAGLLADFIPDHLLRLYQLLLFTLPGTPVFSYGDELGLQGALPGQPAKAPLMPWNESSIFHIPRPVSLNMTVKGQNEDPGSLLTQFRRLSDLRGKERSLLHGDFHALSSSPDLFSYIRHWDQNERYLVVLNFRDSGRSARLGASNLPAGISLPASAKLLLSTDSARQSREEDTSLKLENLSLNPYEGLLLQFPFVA

EC50 (AHR [1]; D3 TH17cond CD4+ T cells, 2 h, read-out: EC50 to drive Cyp1A1 mRNA expression): 11.1 µM | temperature dependence of kynurenine-mediated increase in MFI ([2]; CTLs, 4 min, 37 °C vs 4 °C): temperature sensitive | Km ([2]; IL-2 maintained CTLs, flow cytometry assay (MFI), read-out: Km for the initial rate of kynurenine transport): 267 µM | Km ([4]; CTLs, rounded value in Discussion, read-out: Km of kynurenine transport in CTLs): ~200 µM | Km ([4]; IL-2 maintained CTLs, radiolabelled kynurenine transport assay, read-out: Km for the initial rate of kynurenine transport): 213 µM | sodium dependence of uptake ([4]; TCR-activated CD4+ T cells, TH1s and CTLs, Na+ containing vs Na+-free buffer): sodium independent
Structure (SMILES): Nc1ccccc1C(=O)CC(N)C(=O)O (stereo not drawn) [kynurenine]
Cyp1a1 mRNA induction, D3 versus D5 post activation (AHR [1]; TH17cond CD4+ T cells, kynurenine 100 μM or FICZ 300 nM, 2 h): strikingly higher on day 3 post activation compared to day 5 cells | concentrations needed to activate the AHR (AHR [3]): μM levels

Structure (SMILES): NC1(C(=O)O)CC2CCC1C2 (stereo not drawn) [BCH, 2-amino-2-norbornanecarboxylic acid]
effect on FICZ-induced Cyp1a1 mRNA (AHR [1]; D3 TH17cond CD4+ T cells, FICZ 300 nM 2 h, BCH 25 mM): does not block FICZ mediated Cyp1a1 mRNA induction | effect on kynurenine-induced Cyp1a1 mRNA (AHR [1]; D3 TH17cond CD4+ T cells, kynurenine 100 μM 2 h, BCH 25 mM): impedes Cyp1a1 mRNA induction in response to kynurenine | Percentage of kynurenine uptake blocked by BCH, Kyn MFI ([2]; 24 h CD3/CD28 stimulated T cells (TCR), 450 nm fluorescence emission): 77.1 ± 14.7% | effect on kynurenine uptake ([2]; CD3/CD28 activated wild-type T cells in co-culture, 5 mM lysine, BCH): BCH treatment did | IC50 ([2]; CTL, 4 min): 492 ± 45 µM | Percentage of kynurenine uptake blocked by BCH, Kyn MFI ([2]; CTL, 450 nm fluorescence emission): 78.3 ± 4.5% | IC50 ([2]; D7 rLM CD8+ effector T cells from spleen, ex vivo, 4 min): 161 ± 34 µM | effect on kynurenine transport ex vivo ([2]; D7 rLM-infected CD8+ T cells, BCH 10 mM, Leu 5 mM, Lys 5 mM): blocked | effect on kynurenine transport (450 nm fluorescence) ([2]; TCR-stimulated CD8+ T cells or CTLs, 4 min, BCH 10 mM, Leu 5 mM, Lys 5 mM): prevented | Percentage of kynurenine uptake blocked by BCH, Kyn MFI ([2]; TH1, 450 nm fluorescence emission): 81.0 ± 9.0% | kynurenine transport blocked as measured by flow cytometry [2, 5]: 80% | Percentage of kynurenine uptake blocked by BCH, 3H-Kyn ([4]; 24 h CD3/CD28 stimulated T cells (TCR), 4 min uptake): 79.1 ± 11.3% | Percentage of kynurenine uptake blocked by BCH, 3H-Kyn ([4]; CTL, 4 min uptake): 92.5 ± 0.9% | Percentage of kynurenine uptake blocked by BCH, 3H-Kyn ([4]; TH1, 4 min uptake): 90.2 ± 2.1% | effect on 3H-kynurenine transport ([4]; TH1 cells and CTLs, BCH 5 mM): inhibited | radiolabelled kynurenine uptake blocked [4, 5]: 80–90%
